Assay results from US20260200903A1, “PHARMACEUTICAL COMPOSITION FOR AMELIORATING MALIGNANT DISEASES” (KINKI UNIVERSITY, priority 2020, published 2026).

What was measured:
Format in all cases: cell-based
[1] = tested on: SU-DHL-4 cells (diffuse large B-cell lymphoma); test: Cell death inducing effect on SU-DHL-4 cells, trypan blue staining; conditions: SU-DHL-4 (DLBCL), cell viability
Procedure: SU-DHL-4 cells (diffuse large B-cell lymphoma) were cultured under 5% CO2 at 37° C.
(§1) The culture medium used RPMI-1640 medium with 100 μg/mL penicillin, 100 U/mL streptomycin and fetal bovine serum. SU-DHL-4 cells were seeded into 96-well plates and incubated with each concentration of the compounds was added, and cell viability was determined by the trypan blue staining.
(§2) For controls, only 0.5% DMSO (diluted in PBS) used to dissolve the compounds was added. For each concentration, each bar line is indicated by an arrow with the sign “n, a, 1, 2, 3, 4, 5, 6, 7, 8, 9, 10, 11, 12” from left to right. The “1, 3, 5, 7, 9, 11” are omitted from the graph, but the sign “1” shall be indicated by an arrow between the signs “a” and “2”, the sign “3” between the signs “2” and “4”, and other odd numbers shall likewise be indicated by arrows between even numbers before and after.
(§3) The sign “n” is the norathyriol (formula (n)) administration group, the sign “a” is the mangiferin 8a (formula (a)) administration group, the sign “1” is the yk-7 (formula (1)) administration group, the sign “2” is the yk-8-1 (formula (2)) administration group, the sign “3” is the yk-8-3 (formula (3)) administration group, the sign “4” is the M7 (formula (4)) administration group, the sign “5” is the M9 (formula (5)) administration group, the sign “6” is the M11 (formula (6)) administration group, the sign “7” is the M12 (formula (7)) administration group, the sign “8” is the M14 (formula (8)) administration group, the sign “9” is the M15 (formula (9)) administration group, the sign “10” is the M16 (formula (10)) administration group, the sign “11” is the M18 (formula (11)) administration group, the sign “12” is the M19 (formula (12)) administration group, respectively. The IC50 values for each compound is also listed in the upper right corner of the figure.

[2] = tested on: RPMI8226/B cells (bortezomib-resistant myeloma cell line); test: Cell death inducing effect on RPMI8226/B cells, trypan blue staining; conditions: RPMI8226/B (myeloma; bortezomib resistance), cell viability
Procedure: as §1, with “RPMI8226/B cells (bortezomib-resistant myeloma cell line) were cultured under 5% CO2 at 37° C. The” for “The”, “RPMI8226/B” for “SU-DHL-4”
as §2, §3

[3] = tested on: CD20; test: CD20 expression in KMS-28BM cells, flow cytometry; conditions: 10 days, concentration lower than the IC50 (0.005-50 μM), compared to the positive control
Procedure: As a control, compounds untreated KMS-28BM cells were seeded in 75 cm^2 flasks and incubated for 10 days at 37° C. and 5% CO2. KMS-28BM cells were seeded into 75 cm^2 flasks and pre-cultured for 4 h. After incubation, KMS-28BM cells were treated with […], 0.05 μM M9, 0.1 μM yk-7, 0.1 μM yk-8-3, 50 μM yk-8-1, 0.5 μM M11, […], 0.005 μM M14, 0.005 μM M15, 0.005 μM M16, 0.5 μM M18, and 0.5 μM M19 at final concentrations, and incubated for 10 days at 37° C. and 5% CO2. This added amount is a concentration lower than the IC50 of the above compounds for KMS-28BM cells. After 10 days of incubation, cells were stained with anti-CD20 antibody, a B cell marker, and CD20 expression was measured using BD LSRFortessa. CCRF-SB cells were used as CD20-positive controls.
Results are shown in FIG. 21, FIG. 22, FIG. 23, and FIG. 24. The horizontal axis represents the expression level of CD20 and the vertical axis represents the number of cells.

[4] = tested on: RPMI8226 cells (myeloma cell line); test: Cell death inducing effect on RPMI8226 cells, trypan blue staining
Procedure: as §1, with “RPMI8226 cells (myeloma cell line) were cultured under 5% CO2 at 37° C. The” for “The”, “RPMI8226” for “SU-DHL-4”
as §2, §3

[5] = tested on: Raji cells (burkitt lymphoma cell line); test: Cell death inducing effect on Raji cells, trypan blue staining; conditions: Raji (Burkkit lymphoma), cell viability
Procedure: as §1, with “Raji cells (burkitt lymphoma cell line) were cultured under 5% CO2 at 37° C. The” for “The”, “Raji” for “SU-DHL-4”
as §2, §3

[6] = tested on: RR1 cells (rituximab-resistant burkitt lymphoma cell line); test: Cell death inducing effect on RR1 cells, trypan blue staining; conditions: RR1 (Burkkit lymphoma; rituximab resistance), cell viability
Procedure: Raji cells, a burkitt lymphoma cell line, were modified to be rituximab-resistant and named RR1 cells.
as §1, with “RR1 cells (rituximab-resistant burkitt lymphoma cell line) were cultured under 5% CO2 at 37° C. The” for “The”, “RR-1” for “SU-DHL-4”
as §2, §3

[7] = tested on: Rec-1 cells (mantle cell lymphoma cell line); test: Cell death inducing effect on Rec-1 cells, trypan blue staining; conditions: Rec-1 (mantle cell lymphoma), cell viability
Procedure: as §1, with “Rec-1 cells (mantle cell lymphoma cell line) were cultured under 5% CO2 at 37° C. The” for “The”, “Rec-1” for “SU-DHL-4”
as §2, §3

[8] = Homo sapiens, RPMI-8226, cell viability

Compound	IC50 ([1]; Homo sapiens)	IC50 ([2]; Homo sapiens, RPMI-8226)	CD20 expression level [3]	IC50 [4, 8]	IC50 ([5]; Homo sapiens)	IC50 [6]	IC50 ([7]; Homo sapiens, Rec1)	IC50 [1]	IC50 [2]	IC50 ([4]; cell viability)	IC50 [5]	IC50 [7]
CCCC(=O)OC[C@H]1O[C@@H](c2c(O)cc3oc4cc(O)c(O)cc4c(=O)c3c2OC(=O)CCC)[C@H](OC(=O)CCC)[C@@H](OC(=O)CCC)[C@@H]1OC(=O)CCC [Compound M12, 1,2′,3′,4′,6-penta-O-butyrylmangiferin]	5 nM	91 nM	significantly increased	291 nM	657 nM	15 nM	951 nM	–	–	–	–	–
CCC(=O)OC[C@H]1O[C@@H](c2c(OC(=O)CC)cc3oc4cc(OC(=O)CC)c(OC(=O)CC)cc4c(=O)c3c2OC(=O)CC)[C@H](OC(=O)CC)[C@@H](OC(=O)CC)[C@@H]1OC(=O)CC [Compound M7, 1,3,2′,3′,4′,6,6′,7-octa-O-propionylmangiferin]	771 nM	251 nM	significantly increased	6420 nM	898 nM	99 nM	2250 nM	–	–	–	–	–
CCCC(=O)OC[C@H]1O[C@@H](c2c(OC(=O)CCC)cc3oc4cc(OC(=O)CCC)c(OC(=O)CCC)cc4c(=O)c3c2OC(=O)CCC)[C@H](OC(=O)CCC)[C@@H](OC(=O)CCC)[C@@H]1OC(=O)CCC [Compound M11, 1,3,2′,3′,4′,6,6′,7-octa-O-butyrylmangiferin]	–	–	significantly increased	–	–	828 nM	–	415 nM	169 nM	3210 nM	698 nM	926 nM
CCCCC(=O)OC[C@H]1O[C@@H](c2c(OC(=O)CCCC)cc3oc4cc(OC(=O)CCCC)c(OC(=O)CCCC)cc4c(=O)c3c2OC(=O)CCCC)[C@H](OC(=O)CCCC)[C@@H](OC(=O)CCCC)[C@@H]1OC(=O)CCCC [yk-8-1, 1,3,2′,3′,4′,6,6′,7-octa-O-valerylmangiferin]	–	–	significantly increased	–	–	21400 nM	–	> 100000 nM	6430 nM	> 100000 nM	> 100000 nM	> 100000 nM
CC(C)(C)C(=O)OC[C@H]1O[C@@H](c2c(O)cc3oc4cc(O)c(O)cc4c(=O)c3c2O)[C@H](OC(=O)C(C)(C)C)[C@@H](OC(=O)C(C)(C)C)[C@@H]1OC(=O)C(C)(C)C [Compound M15, 2′,3′,4′,6′-tetra-O-pivaloylmangiferin]	2 nM	71 nM	significantly increased	183 nM	96 nM	11 nM	32 nM	–	–	–	–	–
O=c1c2cc(O)c(O)cc2oc2cc(O)cc(O)c12 [norathyriol, reference compound]	18400 nM	632 nM	–	8870 nM	8600 nM	737 nM	15800 nM	–	–	–	–	–
O=c1c2cc(O)c(O)cc2oc2cc(O)cc(OCCO)c12 [Compound M18, 3,6,7-trihydroxy-1-(2-hydroxyethoxy)-9H-xanthen-9-one]	9580 nM	486 nM	significantly increased	6870 nM	5590 nM	651 nM	9120 nM	–	–	–	–	–
CCCC(=O)OC[C@H]1O[C@@H](c2c(O)cc3oc4cc(O)c(O)cc4c(=O)c3c2O)[C@H](OC(=O)CCC)[C@@H](OC(=O)CCC)[C@@H]1OC(=O)CCC [Compound M14, 2′,3′,4′,6′-tetra-O-butyrylmangiferin]	2 nM	51 nM	significantly increased	121 nM	85 nM	8 nM	24 nM	–	–	–	–	–
C=CCOc1cc(O)cc2oc3cc(O)c(O)cc3c(=O)c12 [Compound M19, 1-allyloxy-3,6,7-trihydroxy-9H-xanthen-9-one]	17400 nM	758 nM	significantly increased	9540 nM	8920 nM	791 nM	21600 nM	–	–	–	–	–
1,2′,3′,4′,6-penta-O-propionylmangiferin [Compound 8a, reference compound]	–	–	–	–	–	328 nM	–	8060 nM	892 nM	7090 nM	4150 nM	22500 nM
CCCCO[C@@H]1[C@@H](OCCCC)[C@H](c2c(O)cc3oc4cc(O)c(O)cc4c(=O)c3c2O)O[C@H](COC(=O)CCC)[C@H]1OC(=O)CCC [Compound M16, 2′,3′-di-O-butyl-4′,6′-di-O-butyrylmangiferin]	11 nM	42 nM	significantly increased	91 nM	79 nM	7 nM	20 nM	–	–	–	–	–
CCCCC(=O)OC[C@H]1O[C@@H](c2c(O)cc3oc4cc(O)c(O)cc4c(=O)c3c2O)[C@H](OC(=O)CCCC)[C@@H](OC(=O)CCCC)[C@@H]1OC(=O)CCCC [yk-7, 2′,3′,4′,6′-tetra-O-valerylmangiferin]	288 nM	79 nM	significantly increased	2460 nM	383 nM	42 nM	2600 nM	–	–	–	–	–
CCC(=O)OC[C@H]1O[C@@H](c2c(O)cc3oc4cc(O)c(O)cc4c(=O)c3c2O)[C@H](OC(=O)CC)[C@@H](OC(=O)CC)[C@@H]1OC(=O)CC [Compound M9, 2′,3′,4′,6′-tetra-O-propionylmangiferin]	86 nM	69 nM	significantly increased	696 nM	227 nM	7 nM	816 nM	–	–	–	–	–
CCCCC(=O)OC[C@H]1O[C@@H](c2c(O)cc3oc4cc(O)c(O)cc4c(=O)c3c2OC(=O)CCCC)[C@H](OC(=O)CCCC)[C@@H](OC(=O)CCCC)[C@@H]1OC(=O)CCCC [yk-8-3, 1,2′,3′,4′,6-penta-O-valerylmangiferin]	346 nM	231 nM	significantly increased	2270 nM	865 nM	72 nM	3310 nM	–	–	–	–	–
